Results: PMC8382989 (Biochemistry, 2013)
Like-named read-outs stand apart in the source and are kept apart here.

What was measured:
[1] = target: T1, human RNR subunit α, N-terminal domain alone (H-NTD) (Homo sapiens, UniProt P23921); experiment: fluorescence anisotropy titration; type: binding
T1 sequence (P23921 1-91): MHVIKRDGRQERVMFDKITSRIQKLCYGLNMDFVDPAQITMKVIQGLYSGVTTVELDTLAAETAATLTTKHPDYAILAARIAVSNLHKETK

[2] = target: E. coli RNR subunit α, catalytic body alone (E-CB) (Escherichia coli, UniProt P00452); experiment: fluorescence anisotropy titration; type: binding
[3] = target: T2, human RNR subunit α (H-α) (Homo sapiens, UniProt P23921); experiment: CDP reductase activity titration with dATP; type: biochemical
T2 sequence (P23921 1-792): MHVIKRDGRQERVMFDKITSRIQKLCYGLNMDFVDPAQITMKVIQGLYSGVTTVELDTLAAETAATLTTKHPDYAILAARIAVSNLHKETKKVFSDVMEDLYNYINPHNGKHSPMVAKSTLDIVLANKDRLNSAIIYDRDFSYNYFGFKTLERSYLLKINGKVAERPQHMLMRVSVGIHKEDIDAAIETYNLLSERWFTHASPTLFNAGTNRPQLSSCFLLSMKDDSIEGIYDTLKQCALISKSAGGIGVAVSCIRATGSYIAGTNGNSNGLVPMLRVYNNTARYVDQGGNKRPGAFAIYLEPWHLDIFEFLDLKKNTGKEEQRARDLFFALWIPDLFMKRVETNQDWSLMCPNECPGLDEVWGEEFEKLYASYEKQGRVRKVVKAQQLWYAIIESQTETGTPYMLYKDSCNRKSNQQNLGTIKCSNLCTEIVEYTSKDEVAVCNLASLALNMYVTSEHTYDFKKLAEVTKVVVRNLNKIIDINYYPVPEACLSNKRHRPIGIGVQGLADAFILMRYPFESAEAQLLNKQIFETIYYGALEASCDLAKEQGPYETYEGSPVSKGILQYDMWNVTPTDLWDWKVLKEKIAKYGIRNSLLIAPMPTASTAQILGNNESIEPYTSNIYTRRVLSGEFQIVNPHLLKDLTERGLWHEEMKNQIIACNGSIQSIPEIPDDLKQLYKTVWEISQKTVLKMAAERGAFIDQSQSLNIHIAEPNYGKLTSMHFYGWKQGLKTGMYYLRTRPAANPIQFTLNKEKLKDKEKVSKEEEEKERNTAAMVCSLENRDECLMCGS

[4] = target: the molecule itself; experiment: SEC
[5] = target: the molecule itself; experiment: SEC; remark: listed apart in the source

E. coli RNR subunit α, catalytic body alone (E-CB), sequence (P00452 94-761): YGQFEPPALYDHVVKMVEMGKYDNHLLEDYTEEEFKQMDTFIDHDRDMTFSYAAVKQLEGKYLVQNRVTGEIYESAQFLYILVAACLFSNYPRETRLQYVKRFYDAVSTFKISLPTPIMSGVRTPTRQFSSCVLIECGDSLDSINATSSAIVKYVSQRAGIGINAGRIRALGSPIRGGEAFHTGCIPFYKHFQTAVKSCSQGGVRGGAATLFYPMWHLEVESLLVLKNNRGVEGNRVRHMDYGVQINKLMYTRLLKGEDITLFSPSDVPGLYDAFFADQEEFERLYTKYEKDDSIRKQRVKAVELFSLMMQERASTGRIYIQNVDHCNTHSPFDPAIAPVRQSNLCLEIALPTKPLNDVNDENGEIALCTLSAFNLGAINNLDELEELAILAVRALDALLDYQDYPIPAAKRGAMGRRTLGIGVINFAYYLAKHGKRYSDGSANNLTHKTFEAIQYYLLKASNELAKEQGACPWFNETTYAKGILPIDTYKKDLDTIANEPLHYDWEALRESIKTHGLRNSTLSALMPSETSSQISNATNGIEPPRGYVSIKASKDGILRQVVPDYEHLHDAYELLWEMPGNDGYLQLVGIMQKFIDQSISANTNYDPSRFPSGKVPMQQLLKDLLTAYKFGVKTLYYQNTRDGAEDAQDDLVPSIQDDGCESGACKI

Texas Red-5-dATP
Kd [1]: 153 ± 19 µM
Kd [2]: 5.3 ± 0.3 µM

Nc1ncnc2c1ncn2[C@H]1C[C@H](O)[C@@H](COP(=O)(O)OP(=O)(O)OP(=O)(O)O)O1 [dATP]
EC50 [3]: 33 ± 7 µM

B1: human ribonucleotide reductase subunit α (enzyme, UniProt P23921 1-792, looked up)
chain: MHVIKRDGRQERVMFDKITSRIQKLCYGLNMDFVDPAQITMKVIQGLYSGVTTVELDTLAAETAATLTTKHPDYAILAARIAVSNLHKETKKVFSDVMEDLYNYINPHNGKHSPMVAKSTLDIVLANKDRLNSAIIYDRDFSYNYFGFKTLERSYLLKINGKVAERPQHMLMRVSVGIHKEDIDAAIETYNLLSERWFTHASPTLFNAGTNRPQLSSCFLLSMKDDSIEGIYDTLKQCALISKSAGGIGVAVSCIRATGSYIAGTNGNSNGLVPMLRVYNNTARYVDQGGNKRPGAFAIYLEPWHLDIFEFLDLKKNTGKEEQRARDLFFALWIPDLFMKRVETNQDWSLMCPNECPGLDEVWGEEFEKLYASYEKQGRVRKVVKAQQLWYAIIESQTETGTPYMLYKDSCNRKSNQQNLGTIKCSNLCTEIVEYTSKDEVAVCNLASLALNMYVTSEHTYDFKKLAEVTKVVVRNLNKIIDINYYPVPEACLSNKRHRPIGIGVQGLADAFILMRYPFESAEAQLLNKQIFETIYYGALEASCDLAKEQGPYETYEGSPVSKGILQYDMWNVTPTDLWDWKVLKEKIAKYGIRNSLLIAPMPTASTAQILGNNESIEPYTSNIYTRRVLSGEFQIVNPHLLKDLTERGLWHEEMKNQIIACNGSIQSIPEIPDDLKQLYKTVWEISQKTVLKMAAERGAFIDQSQSLNIHIAEPNYGKLTSMHFYGWKQGLKTGMYYLRTRPAANPIQFTLNKEKLKDKEKVSKEEEEKERNTAAMVCSLENRDECLMCGS
stoichiometry N [4]: 6

B2: human D57N-α (point mutant of human RNR subunit α) (enzyme, UniProt P23921 1-792, looked up)
chain: MHVIKRDGRQERVMFDKITSRIQKLCYGLNMDFVDPAQITMKVIQGLYSGVTTVELNTLAAETAATLTTKHPDYAILAARIAVSNLHKETKKVFSDVMEDLYNYINPHNGKHSPMVAKSTLDIVLANKDRLNSAIIYDRDFSYNYFGFKTLERSYLLKINGKVAERPQHMLMRVSVGIHKEDIDAAIETYNLLSERWFTHASPTLFNAGTNRPQLSSCFLLSMKDDSIEGIYDTLKQCALISKSAGGIGVAVSCIRATGSYIAGTNGNSNGLVPMLRVYNNTARYVDQGGNKRPGAFAIYLEPWHLDIFEFLDLKKNTGKEEQRARDLFFALWIPDLFMKRVETNQDWSLMCPNECPGLDEVWGEEFEKLYASYEKQGRVRKVVKAQQLWYAIIESQTETGTPYMLYKDSCNRKSNQQNLGTIKCSNLCTEIVEYTSKDEVAVCNLASLALNMYVTSEHTYDFKKLAEVTKVVVRNLNKIIDINYYPVPEACLSNKRHRPIGIGVQGLADAFILMRYPFESAEAQLLNKQIFETIYYGALEASCDLAKEQGPYETYEGSPVSKGILQYDMWNVTPTDLWDWKVLKEKIAKYGIRNSLLIAPMPTASTAQILGNNESIEPYTSNIYTRRVLSGEFQIVNPHLLKDLTERGLWHEEMKNQIIACNGSIQSIPEIPDDLKQLYKTVWEISQKTVLKMAAERGAFIDQSQSLNIHIAEPNYGKLTSMHFYGWKQGLKTGMYYLRTRPAANPIQFTLNKEKLKDKEKVSKEEEEKERNTAAMVCSLENRDECLMCGS
stoichiometry N [4]: 2

B3: E. coli ribonucleotide reductase subunit β (enzyme)
chain: AYTTFSQTKNDQLKEPMFFGQPVNVARYDQQKYDIFEKLIEKQLSFFWRPEEVDVSRDRIDYQALPEHEKHIFISNLKYQTLLDSIQGRSPNVALLPLISIPELETWVETWAFSETIHSRSYTHIIRNIVNDPSVVFDDIVTNEQIQKRAEGISSYYDELIEMTSYWHLLGEGTHTVNGKTVTVSLRELKKKLYLCLMSVNALEAIRFYVSFACSFAFAERELMEGNAKIIRLIARDEALHLTGTQHMLNLLRSGADDPEMAEIAEECKQECYDLFVQAAQQEKDWADYLFRDGSMIGLNKDILCQYVEYITNIRMQAVGLDLPFQTRSNPIPWINTWLVSDNVQVAPQEVEVSSYLVGQIDSEVDTDDLSNFQL
stoichiometry N [5]: 2
